In patent US20230293565A1, “USE OF WNT/BETA-CATENIN PATHWAY INHIBITORS TO BLOCK REPLICATION OF SARS-COV-2 AND OTHER PATHOGENIC VIRUSES” (THE GOVERNORS OF THE UNIVERSITY OF ALBERTA, priority 2020, published 2023):
“Also recorded” adds a separate entry of the source. Where two headings read alike, the source gives them in different places.

How the values were obtained:
[1] = system: type III (IFNλ2) interferon; format: cell-based, human; conditions: A549 treated 24 h, Sendai virus 8 and 16 hours
[2] = system: HCOV-NL63; assay: HCOV-NL63 plaque assay in Calu3 cells; format: cell-based; conditions: Calu3 treated 24 h, MOI 0.5, 24 h
Method: (§1) FIG. 16. Effect of Wnt/β-catenin inhibitors on other human coronaviruses (HCOVs). Calu3 cells were treated with the indicated concentrations of Wnt/β-catenin inhibitors for 24 hours and then infected with HCOVs NL63 or 229E MOI of 0.5). Twenty-four hours later, media were collected and subjected to plaque assay to determine viral titers. Average titers from there independent experiments are shown.
(§2) Because Wnt/β-catenin inhibitors enhance the IFN response, we hypothesized that these drugs would be effective against other human coronaviruses and potentially other pathogenic RNA viruses such as flaviviruses and alphaviruses. To test this theory, Calu-3 and A549 cells treated with Wnt/β-catenin inhibitors or DMSO for 24 hours were infected with two different seasonal human coronavirus HCOV-NL63 and HCOV-229E for 24 hours or Zika virus or Mayaro virus for 48 and 24 hours respectively.

[3] = system: SARS-CoV-2 (CANADA/VIDO01/2020 strain); format: cell-based
[4] = system: HCOV-229E; assay: HCOV-229E plaque assay in Calu3 cells; format: cell-based
Method: as §1, §2

[5] = system: Vero cells; format: cell-based, African green monkey; conditions: 1 μM (Pyrvinium 100 nM), 48 hours
[6] = system: Zika virus (ZIKV); assay: Zika virus plaque assay and qRT-PCR in A549 cells; format: cell-based; conditions: A549, 1 μM, 24 h pre-treatment, 0.1 MOI
Method: FIG. 17. Wnt/β-catenin inhibitors reduce replication of other RNA viruses. A549 cells were treated with Wnt/β-catenin inhibitors (1 μM) or DMSO alone for 24 hours, after which the cells were infected with 0.1 MOI of Zika virus (ZIKV) or Mayaro virus (MAYV). Forty-eight hours later, virus-containing media were subjected to plaque assays and total RNA extracted from cells was subjected to qRT-PCR to determine relative levels of viral RNA. Average viral titers (A,C) and genomic RNA levels (B, D) from drug-treated cells from 3 independent experiments are shown. Error bars represent standard error of the mean. *, P<0.05; **, P<0.01; N.S. (not significant).
as §2

[7] = system: Mayaro virus (MAYV); format: cell-based; conditions: A549, 1 μM, 24 h pre-treatment, 0.1 MOI

Compound	induction of type III IFN (IFNλ2 transcripts) [1]	titers of HCOV-NL63 [2]	SARS-CoV-2 replication, drug added 6-hours post-infection (in words) [3]	SARS-CoV-2 replication, drug added 12-hours post-infection (in words) [3]	titers of HCOV-229E [4]	density of peroxisomes in Vero cells [5]	replication of Zika virus [6]	replication of Mayaro virus [7]	titers of HCOV-229E ([4]; Calu3 treated 24 h, MOI 0.5, 24 h)
iCRT-14	much more dramatic effects	–	–	–	–	–	–	–	–
Cc1cc(/C=C/c2ccc3cc(N(C)C)ccc3[n+]2C)c(C)n1-c1ccccc1 [Pyrvinium]	much more dramatic effects	significantly reduced	effectively block; also recorded: reduce SARS-CoV-2 replication	reduce SARS-CoV-2 replication	significantly reduced	–	–	–	–
Cc1cc(-c2ncc(CC(=O)Nc3ccc(-c4cnccn4)cn3)cc2C)ccn1 [LGK-974]	–	–	effectively block	–	–	–	–	–	–
O=C([O-])CCN1C(=O)/C(=C/c2ccc(-c3ccc([N+](=O)[O-])cc3)o2)SC1=S.[K+] [KYA1797K]	–	significantly reduced	effectively block; also recorded: reduce SARS-CoV-2 replication	reduce SARS-CoV-2 replication	–	increases peroxisome density	most potent	most potent	significantly reduced
